Experiments:
Assay in all cases: area under growth-rate inhibition curve (AUC GRI) (dimensionless (GR-based AUC)); higher = less growth inhibition
Settings in all cases: exposure time: 72 h; concentrations: 0.1, 1, 10 uM
BT474-LTR = system: BT474-LTR
Outline: (§1)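 Six breast cancer cell line models were used: two triple-negative lines, plus parental HER2+ lines and HER2+ lines resistant to a two-drug combination, each plated at an optimised log-phase density and treated with compound at 0.1, 1 or 10 µM for 72 h. After fixation in 4% paraformaldehyde, nuclei were stained with Hoechst 33342 or DAPI, imaged and counted. Growth was corrected using Day 0 plates, untreated Day 3 plates and DMSO controls, with 2 biological replicates. These corrected counts gave the area under the growth-rate inhibition curve.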

BT474-P = system: BT474-P
Outline: as §1

MDA-MB-231 = system: MDA-MB-231
Outline: as §1

MDA-MB-468 = system: MDA-MB-468
Outline: as §1

SKBR3-LTR = system: SKBR3-LTR
Outline: as §1

SKBR3-P = system: SKBR3-P
Outline: as §1

SMILES | area under growth-rate inhibition curve (BT474-LTR) | area under growth-rate inhibition curve (BT474-P) | area under growth-rate inhibition curve (MDA-MB-231) | area under growth-rate inhibition curve (MDA-MB-468) | area under growth-rate inhibition curve (SKBR3-LTR) | area under growth-rate inhibition curve (SKBR3-P)
CCOc1ccc(Cc2cc([C@@H]3O[C@H](CO)[C@@H](O)[C@H](O)[C@H]3O)ccc2Cl)cc1 [Dapagliflozin] | 1.07 | 1.01 | 1.01 | 1.01 | 1.05 | 1.01
CN1CCC(=C2c3ccccc3C=Cc3ccccc32)CC1.[Cl-].[H+] [Cyproheptadine HCl] | 1.03 | 1.03 | 1.02 | 1 | 1.09 | 1
Cc1nc2n(c(=O)c1CCN1CCC(c3noc4cc(F)ccc34)CC1)CCCC2O (stereo not given) [Paliperidone] | 1.02 | 0.98 | 1.05 | 1.05 | 1.06 | 1.02
CC12CC3CC(C)(C1)CC(N)(C3)C2.Cl [Memantine HCl] | 0.981 | 1 | 0.997 | 0.982 | 0.989 | 1.03
C[NH+](C)CCCN1c2ccccc2Sc2ccc(Cl)cc21.[Cl-] [Chlorpromazine Hydrochloride] | 0.991 | 1 | 0.985 | 0.989 | 1.02 | 0.994
CCNC1(C(N)=O)CCN(c2ncnc3c2nc(-c2ccccc2Cl)n3-c2ccc(Cl)cc2)CC1.[Cl-].[H+] | 1.06 | 0.991 | 0.999 | 1 | 1.04 | 1.01
CN1CC2c3ccccc3Oc3ccc(Cl)cc3C2C1.O=C(O)C=CC(=O)O (stereo not given) [Asenapine] | 1.06 | 1.01 | 1.02 | 0.959 | 0.993 | 0.975
COc1ccc(NS(=O)(=O)c2sc3ccc(Cl)cc3c2C)cc1N1CCNCC1 | 1.03 | 0.976 | 1.05 | 0.964 | 1.05 | 0.997
CN(C)C(=O)C(CCN1CCC(O)(c2ccc(Cl)cc2)CC1)(c1ccccc1)c1ccccc1.[Cl-].[H+] [Loperamide HCl] | 0.94 | 0.882 | 1.03 | 0.911 | 1 | 0.943
CC#C[C@]1(O)CC[C@H]2[C@@H]3CCC4=CC(=O)CCC4=C3[C@@H](c3ccc(N(C)C)cc3)C[C@@]21C [Mifepristone] | 1.02 | 1 | 1.03 | 0.989 | 0.998 | 0.962
CN1C2CC(O)CC1C1OC12 (stereo not given) [Scopine] | 1.08 | 1.05 | 1.07 | 1.05 | 1.05 | 1.03
N#Cc1cc2cc(CN3CCC(Nc4ncnc5sc(CC(F)(F)F)cc45)CC3)ccc2[nH]1 [MI-136] | 0.906 | 0.833 | 0.931 | 0.834 | 1.01 | 0.895
COc1ccccc1OCCNCC(O)COc1cccc2[nH]c3ccccc3c12 (stereo not given) [Carvedilol] | 1.03 | 0.957 | 1.03 | 0.937 | 1.07 | 1
COCCc1ccc(OCC(O)CNC(C)C)cc1.O=C(O)C(O)C(O)C(=O)O (stereo not given) [Metoprolol Tartrate] | 1.01 | 0.987 | 1.01 | 0.98 | 0.997 | 0.999
COC(c1ccccc1)(c1ccccc1)C(Oc1nc(C)cc(C)n1)C(=O)O (stereo not given) [Ambrisentan] | 1.05 | 1.01 | 1.05 | 1.04 | 1.06 | 1.03
C=C[C@@]1(C)CC(=O)[C@]2(O)[C@@]3(C)[C@@H](O)CCC(C)(C)[C@@H]3[C@H](O)[C@H](OC(C)=O)[C@@]2(C)O1 [Forskolin] | 1.02 | 0.984 | 0.924 | 1.01 | 1.04 | 1.03
CNCC[C@@H](Oc1ccccc1C)c1ccccc1.Cl [Atomoxetine HCl] | 1.09 | 1.04 | 1.02 | 1.01 | 1.05 | 1.01
CCc1ccc(OCc2ccccc2C(=O)Nc2ccc3nc(C)cc(N)c3c2)cc1.[Cl-].[H+] [JTC-801] | 0.744 | 0.751 | 0.713 | 0.718 | 0.8 | 0.778
CN(C)CC/C=C1/c2ccccc2Sc2ccc(Cl)cc21 [Chlorprothixene] | 1.01 | 0.997 | 1.02 | 0.931 | 1.03 | 0.97
CN1c2ccccc2C(NCCCCCCC(=O)[O-])c2ccc(Cl)cc2S1(=O)=O.[Na+] (stereo not given) [Tianeptine sodium] | 1.09 | 1.06 | 1.02 | 1.05 | 1.02 | 1.01
Cc1cccc(C(C)c2c[nH]cn2)c1C.Cl (stereo not given) [Medetomidine HCl] | 0.982 | 0.995 | 1.01 | 1.02 | 0.995 | 1.03
Nc1ncnc2c1c(I)cn2[C@@H]1O[C@H](CO)[C@H](O)C1O (stereo not given in full) [5-Iodotubercidin] | 0.673 | 0.676 | 0.705 | 0.73 | 0.627 | 0.632
O=c1ncnc2[nH][nH]cc1-2 [Allopurinol] | 1.1 | 1.06 | 1.03 | 1.06 | 1.07 | 1.03
O=C(CCCN1CCC(O)(c2ccc(Cl)cc2)CC1)c1ccc(F)cc1.[Cl-].[H+] [Haloperidol hydrochloride] | 1.07 | 1.03 | 1.04 | 1.04 | 1.05 | 1.01
OCCOCCN1CCN(C(c2ccccc2)c2ccc(Cl)cc2)CC1.[Cl-].[Cl-].[H+].[H+] (stereo not given) [Hydroxyzine 2HCl] | 1.1 | 1.08 | 1.01 | 1.04 | 1.05 | 0.995

From the supplement of paper PMC9763283
